US8178506B2, “Oligomeric compounds and compositions for use in modulation of small non-coding RNAs” (Regulus Therapeutics Inc., priority 2003, dated 2012)
In the oligonucleotide strings, read from the 5' end, every base follows the letter of its sugar. An asterisk marks phosphorothioate; unmarked linkages are phosphodiester. Other units and linkages are bracketed, terminal groups are in braces. A string of capitals states the bases alone. e = 2'-O-(2-methoxyethyl) (MOE); [5mC] = 5-methylcytosine

How the values were obtained:
PPP2CB protein = assay: Immunoblot of PPP2CB protein in differentiating adipocytes; assay type: cell-based, human; conditions: differentiating adipocytes 7- and 10-days post-differentiation, 250 nM
Method: When miRNAs have effects on the expression of downstream genes or proteins encoded by these genes, it is advantageous to measure the protein levels of those gene products, and to do this, western blot (immunoblot) analysis is employed. Immunoblot analysis is carried out using standard methods. Briefly, preadipocytes and differentiating adipocytes were cultured as described previously, and differentiating adipocytes are sampled at several timepoints after stimulation of differentiation. Cells were treated with 250 nM oligomeric compounds and harvested 16-20 h after oligomeric compound treatment. Cells were washed, lysed in RIPA buffer with protease inhibitor cocktail (Roche Diagnostics Corporation, Indianapolis, Ind.), suspended in Laemmli buffer (20 ul/well), boiled for 5 minutes and loaded onto either an 8% SDS-PAGE or a 4-20% gradient SDS-PAGE gel. Gels are run for approximately 1.5 hours at 150 V, and transferred to PVDF membrane for western blotting. […] Bands are visualized and quantitated using a PHOSPHORIMAGER™ (Molecular Dynamics, Sunnyvale Calif.) or the ChemiDoc™ system (Bio-Rad Laboratories, Inc., Hercules, Calif.). Thus, the effects of treatment of many cell types (including, but not limited to, preadipocytes, differentiating adipocytes, HeLa, T-24 and A549 cells) with oligomeric compounds of the present invention on the levels of gene expression products can be assessed. […]

mir-21 miRNA = assay: pGL3-mir-21 sensor luciferase assay in HeLa cells; assay type: cell-based, human
Outline: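 HeLa cells were transiently transfected with pGL3-Control carrying a mir-21-complementary site in the luciferase 3′UTR, which endogenous mir-21 silences. 2′-MOE oligomeric compounds were given at 10 or 50 nM, or at 1.9, 5.5, 16.7 and 50 nM for dose response. Luciferase was normalized to pRL-CMV and expressed as percent of the plasmid-only untreated control.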

[1] = Table 44, pGL3-mir-21 sensor-expressing HeLa cells, 10 nM
[2] = Table 44, pGL3-mir-21 sensor-expressing HeLa cells, 50 nM

Substance | PPP2CB protein levels (PPP2CB protein) | luciferase expression % UTC (mir-21 miRNA; [1]) | luciferase expression % UTC (mir-21 miRNA; [2]) | luciferase expression % UTC (mir-21 miRNA; Table 50, pGL3-mir-21 sensor-expressing HeLa cells, 1.9 nM, normalized to pRL-CMV) | luciferase expression % UTC (mir-21 miRNA; Table 50, pGL3-mir-21 sensor-expressing HeLa cells, 5.5 nM, normalized to pRL-CMV) | luciferase expression % UTC (mir-21 miRNA; Table 50, pGL3-mir-21 sensor-expressing HeLa cells, 16.7 nM, normalized to pRL-CMV) | luciferase expression % UTC (mir-21 miRNA; Table 50, pGL3-mir-21 sensor-expressing HeLa cells, 50 nM, normalized to pRL-CMV)
TGAGCTACAGTGCTTCATCTCA [ISIS 327901] (chemistry not given here) [uniform 2′-MOE PS; targets mir-143] | higher |  |  |  |  |  | 
327901 (antisense eT*eG*eA*eG*e[5mC]*eT*eA*e[5mC]*eA*eG*eT*eG*e[5mC]*eT*eT*e[5mC]*eA*eT*e[5mC]*eT*e[5mC]*eA) [compound 327901] |  | 74.2 % UTC | 83.1 % UTC |  |  |  | 
327917 (antisense eT*e[5mC]*eA*eA*e[5mC]*eA*eT*e[5mC]*eA*eG*eT*e[5mC]*eT*eG*eA*eT*eA*eA*eG*e[5mC]*eT*eA) [compound 327917] |  | 1037.6 % UTC | 847.5 % UTC | 522 % UTC | 1293 % UTC | 2470 % UTC | 4534 % UTC
